Data from patent US11819491B2, “Dilutable formulations of cannabinoids and processes for their preparation” (Yissum Research Development Company of the Hebrew …, priority 2016, dated 2023).

Assay: Stability of CBD in simulated gastric fluid (SGF)
Assay type: physicochemical
Details: 37° C.
Experimental: A medium of stimulating gastric fluid (SGF) was prepared by dissolving sodium chloride (0.2 w/v %) and hydrochloric acid (0.1M) in DDW, and incubated at 37° C.
For MeOH solution sodium dodecyl sulfate (1 w/v %) was added to the SGF. 500 ml of SGF mediums was contained in an appropriate Erlenmeyer flask. At time 0-1 ml of each CBD stock solution was added to the SGF. The mixture was vigorously shaken at a water bath warmed to 37° C. and immediately 1 ml of the solution was sampled and replaced with an equal volume of preheated SGF medium. Similarly, same volume was sampled at 5, 10, 15, 20, 30, 45, 60, 75, 90, 120, 150 and 180 minutes. Each 1 mL sample was immediately neutralized to a pH of 7 to 9, with 980 μL of 0.1M sodium hydroxide solution and 3 ml MeOH, and pH levels were tested. All samples were kept at 4° C. until HPLC analysis.
For MeOH solution and AX1 system additional samples were taken every 30 min and injected directly into the HPLC without further treatment. […] The measured CBD concentration was divided to the initial concentration (C/C0) at each time point.
In comparison, the CBD profile in SGF with a commercial product (‘RSHO’™—containing CBD dissolved in vegetable oil) and CBD dissolved in pure olive oil were evaluated.

With C=C(C)[C@@H]1CCC(C)=C[C@H]1c1c(O)cc(CCCCC)cc1O [CBD in MeOH, cannabidiol] the “Start of CBD degradation” value was 5 min, the CBD left (after 2 hours) was “less than 4%” and the “CBD degradation in SGF (in words)” value (up to 180 min) was “significant degradation over time”. The CBD decomposed (within 30 min) was 68%.
